Measurements: patent US5070074A, “Hypoglycemic and growth-promoting polypeptides isolated from bacitracin” (Protor Co., priority 1990, dated 1991)

System: insulinase
Test: insulinase inhibitory activity (method of Duckworth et al.)
Assay type: biochemical
Conditions: peaks from CM-Sepharose fractionation of commercial bacitracin
Procedure: The desired fraction is believed to have a molecular weight of about 1400, approximately the same as bacitracin A or F. Their anti-insulinase and antibacterial activities can be assayed in conventional manner. For example, the insulinase inhibitory activity was measured according to the method of Duckworth, et al., Proc. Nat. Acad. Sci., 69, 3698-3702 (1972) and the anti-bacterial activity by the method of Patrick, et al., Antibiotics and Chemotherapy, 1, 133-137 (1951).
A 350 ml bed volume of CM-Sepharose in a packed column (2.8×56 cm) was equilibrated with 0.05M ammonium acetate, pH 4.5 One gram of commercial bacitracin dissolved in 50 ml of buffer was applied to the packed column. The material was eluted with […] of equilibrating buffer followed by 350 ml of 1M ammonium acetate pH 4.5 buffer. Five ml fractions were collected and absorbance measurements at 252, 280 and 290 nm were made. In addition, insulinase inhibitory activity measurements were made on each peak. […] The peaks were collected, lyophilized, weighed and dissolved in water at 5 mg/ml concentration for specific activity measurements. The material collected with the second buffer contained 5-10 % of the total weight of the applied material and 90 % of the total insulinase inhibitory capacity. The specific activity of this material was 10-12 times that of the starting commercial material.

Row | Substance | insulinase inhibitory activity | insulinase inhibitory activity (listed as bacitracin F) | insulinase inhibitory activity (listed as bacitracin A)
1 | bacitracin F | negligible | substantially no | 
2 | bacitracin A | negligible |  | substantially no
